Results as given in patent US11661453B2 (Tesaro, Inc., priority 2017, dated 2023).

What was measured:
DLD1 BRCA2−/− cells = settings: 300 nM for 24 or 48 hours
Description: (§1) The cells were subsequently analyzed for expression of Stimulator of Interferon Genes (STING) pathway proteins via Western blotting.

MDA-MB-436 cells = test system: MDA-MB-436 cells
Description: as §1

[1] = test system: MMTV-LPA1 breast (LPA-T22); experiment: Tumor growth inhibition, syngeneic MMTV-LPA1 breast model; type: in vivo, mouse; settings: niraparib orally once daily, antibody intraperitoneally twice weekly
Description: (§2) A panel of 14 syngeneic or humanized xenograft models representing BRCA-proficient (wild-type) and BRCA-deficient (mutant) cancers derived from breast, lung, ovary, skin, sarcoma, bladder and colon tumors was established. The panel included the following genetically engineered mouse tumor models: 1) KrasG12D and PTEN null bladder (BL6078), 2) TP53 null sarcoma (SA9003), 3) MMTV-LPA1 breast (LPA-T22), 4) BRCA1 mutant breast (MDA-MB-436; also referred to as MM-436), 5) APC^Min heterozygous mutant skin (SK6005), and 6) BRCA1−/−, TP53−/−, KrasG12D ovarian (BRKras) models. While the bladder syngeneic model was BRCA1 wild-type, the sarcoma model harbored BRCA1 A122E and S123X heterozygous mutations. Specifically, mice were administered treatments after tumors reached 50-150 mm^3. […] The suboptimal dose administered for specific tumor models was as follows: 35 mg/kg daily for 5 consecutive days per week (QD×5/week) for the BR1126 tumor model, 35 mg/kg (QD×5/week) for the MDA-MB-436 tumor model, 30 mg/kg for the BRKras tumor model, and 25 mg/kg daily for the SK6005 tumor model. The anti-PD-1 antibody (RMP1-14/2C4) or the anti-PD-L1 antibody (10F.9G2) was administered twice weekly intraperitoneally at 10 mg/kg dose unless otherwise noted. […] Tumor growth was monitored twice per week.

[2] = test system: TP53 null sarcoma (SA9003); experiment: Tumor growth inhibition, TP53 null sarcoma model; type: in vivo, mouse; settings: niraparib orally once daily, antibody intraperitoneally twice weekly
Description: as §2

[3] = test system: KrasG12D and PTEN null bladder (BL6078); experiment: Tumor growth inhibition, Kras G12D and PTEN null bladder model; settings: mouse, in vivo
Description: as §2

PARP activity = PARP activity stimulated by DNA damage caused by hydrogen peroxide, various cell lines, cited from earlier work
[4] = test system: cancer cell lines that have been silenced for BRCA-1 or BRCA-2, or carry BRCA-1 or BRCA-2 mutations; settings: cited from earlier work
[5] = test system: selected Ewing's sarcoma, ALL, NSCLC and SCLC cell lines, tumor cell lines carrying homozygous inactivation of the ATM gene; settings: cited from earlier work
normal human cells = settings: cited from earlier work
[6] = test system: MDA-MB-436, CAPAN-1, GRANTA-519, OVCAR3, HT29, DLD-1, patient derived Ewing's sarcoma and TNBC xenograft models; settings: xenograft models in mice; cited from earlier work
[7] = test system: non-small-cell lung cancer, melanoma, and renal-cell cancer; settings: Phase I clinical trial; cited from earlier work

Row | Compound | mRNA expression of type-I interferon (IFNB1 or IFNA1) (DLD1 BRCA2−/− cells) | mRNA expression of type-I interferon (IFNB1) (MDA-MB-436 cells; 300 nM for 24 or 48 hours) | expression of STING pathway proteins (p-STING, STING, p-TBK1, TBK1, p-NF-κB p65, NF-κB p65) (MDA-MB-436 cells; 1 μM for 48 hours, Western blotting) | tumor growth inhibition (TGI) [1] [%] | tumor growth inhibition (TGI) [2] [%] | response to monotherapy [3] | IC50 (PARP activity; read-out: IC50 of PARP activity in cell lines) [nM] | IC90 (PARP activity; read-out: inhibitory concentration at 90% of control (IC90) of PARP activity in cell lines) [nM] | consequence on cell cycle ([4]; BRCA-defective cells) | anti-proliferative activity ([4]; compared to wild type counterparts) | cytotoxicity [5] | activity on normal human cells (normal human cells) | antitumor activity in vivo [6] | clinical response [7]
1 | NC(=O)c1cccc2cn(-c3ccc([C@@H]4CCCNC4)cc3)nc12 [Niraparib, (3 S)-3-[4-{7-(aminocarbonyl)-2H-indazol-2-yl}phenyl]piperidine] | detected | detected | expression of STING pathway proteins | 45 | 1 | neither responsive | ~4 | ~50 | cell cycle arrest in G2/M followed by apoptosis | selective anti-proliferative activity | selectively cytotoxic | weak activity | strong antitumor activity | 
2 | nivolumab: anti-PD-1 monoclonal antibody (Human IgG4) |  |  |  |  |  |  |  |  |  |  |  |  |  | complete or partial responses
